Laboratory results: patent publication US20090215894A1, “INHIBITION OF PHOSPHATASE ACTIVITY OF SOLUBLE EPOXIDE HYDROLASE AMINO TERMINUS AND USES THEREOF” (REGENTS OF THE UNIVERSITY OF CALIFORNIA, priority 2005, published 2009)
Counter-ions that a name gives are not always drawn. Like-named read-outs stand apart in the source and are kept apart here.

What was measured:
Format in all cases: biochemical
Nterm-phos [1] = biological target: T1, Nterm-phos (Homo sapiens, UniProt P34913); assay: Specific activity of Nterm-phos for lipid-phosphates (phosphoric acid formed); details: substrate hydrolysis, 30° C., average ± SD of three experiments
T1 construct: use of a truncated enzyme from crude extract versus purified full-length human sEH; made in house; host or cells: baculovirus expression system (insect cells)
T1 sequence (P34913 1-555): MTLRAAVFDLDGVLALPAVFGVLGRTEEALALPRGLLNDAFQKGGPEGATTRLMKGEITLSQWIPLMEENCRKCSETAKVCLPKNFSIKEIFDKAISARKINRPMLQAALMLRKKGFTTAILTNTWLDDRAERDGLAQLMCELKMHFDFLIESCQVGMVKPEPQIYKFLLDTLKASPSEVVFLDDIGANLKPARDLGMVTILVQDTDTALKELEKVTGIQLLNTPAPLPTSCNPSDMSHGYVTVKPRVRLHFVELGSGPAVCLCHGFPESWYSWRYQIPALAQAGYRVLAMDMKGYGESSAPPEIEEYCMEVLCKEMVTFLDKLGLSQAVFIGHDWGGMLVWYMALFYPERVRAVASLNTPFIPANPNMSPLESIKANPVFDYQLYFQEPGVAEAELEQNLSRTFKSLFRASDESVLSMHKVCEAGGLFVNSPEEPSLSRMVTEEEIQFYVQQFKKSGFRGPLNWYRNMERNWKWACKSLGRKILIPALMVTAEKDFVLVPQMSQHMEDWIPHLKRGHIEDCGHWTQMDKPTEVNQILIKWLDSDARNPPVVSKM
Method: Nterm-Phos activity was measured in Bis-Tris HCl buffer (25 mM PH 7.0) containing 0.1 mg/mL of Fraction V BSA and 1 mM of MgCl2 (buffer A) at 30° C. […] APHP activity was measured as described using 7 as substrate (Newman et al., Proc. Natl. Acad. Sci. USA. 100, 1558-1563 (2003)). Compounds 34-37 were incubated separately with the enzyme for a given time, and then the reaction was stopped by the addition of 100 μL of methanol. The reaction products for compounds 34-37 were extracted with 500 μL of ethyl acetate. The quantification of the alcohol products was performed by LC/MS analysis of 2 μL of the organic phase. The Cterm-EH activity was measured as described previously in buffer A, using either racemic 4-nitrophenyl-trans-2,3-epoxy-3-phenylpropyl carbonate (Dietze et al., Anal. Biochem. 216, 176-187 (1994)) or racemic [^3H]-trans-1,3-diphenylpropene oxide as substrate (Borhan et al., Anal. Biochem. 231, 188-200 (1995)). This latter substrate was also used to measure the activity of the cress sEH and the truncated human sEH.

Human Cterm-EH = biological target: T2, Human Cterm-EH (Homo sapiens, UniProt P34913); assay: Inhibition of Cterm-EH activity by lipid-phosphates, fluorescent assay
T2 construct: use of a truncated enzyme from crude extract versus purified full-length human sEH; made in house; host or cells: baculovirus expression system (insect cells)
T2 sequence (P34913 1-555): T1 sequence (P34913 1-555)

[2] = biological target: T3, Human sEH Cterm-EH activity (Homo sapiens, UniProt P34913); assay: Cterm-EH inhibition IC50 with 4-nitrophenyl-trans-2,3-epoxy-3-phenylpropyl carbonate
T3 construct: use of a truncated enzyme from crude extract versus purified full-length human sEH; made in house; host or cells: baculovirus expression system (insect cells)
T3 sequence (P34913 1-555): T1 sequence (P34913 1-555)

Nterm-phos [3] = biological target: T1, Nterm-phos; assay: Kinetic parameters of Nterm-phos for poly-isoprenyl phosphates (LC/MS of alcohol products)
Method: Nterm-Phos activity was measured in Bis-Tris HCl buffer (25 mM PH 7.0) containing 0.1 mg/mL of Fraction V BSA and 1 mM of MgCl2 (buffer A) at 30° C. […] APHP activity was measured as described using 7 as substrate (Newman et al., Proc. Natl. Acad. Sci. […] The quantification of the alcohol products was performed by LC/MS analysis of 2 μL of the organic phase. […] This latter substrate was also used to measure the activity of the cress sEH and the truncated human sEH. […] The Shimadzu […] HPLC system (Shimadzu Scientific Instruments, Columbia, Md.) was set at a flow rate of 0.2 mL/min, and a 2.1×30 mm XTerraTM MS C18 3.5 μm column (Waters, Milford, Mass.) held at 20° C. The samples were kept at 10° C. in the auto-sampler. […] A solvent system consisting of water with 0.1% formic acid (solvent A) and acetonitrile with 0.1% formic acid (solvent B) was used and set at a flow rate of 0.25 mL/min. […] Pyrophosphate was analyzed by direct injection of 5 μL sample into the mass spectrometer at 0.05 mL/min flow rate of 50% A and 50% B. Analytes were detected by electrospray ionization-tandem quadrupole mass spectrometry in multiple reaction monitoring mode (MRM) using a Quattro Premier tandem quadrupole mass spectrometer (Micromass, Manchester, UK). Nitrogen gas flow rates were fixed with a cone gas flow of 25 L/h and a desolvation gas flow of 700 L/h. Electrospray ionization of geraniol, farnesol and geranylgeraniol was performed in positive mode with a capillary voltage fixed at 3.20 kV and a cone voltage fixed at 25 V using a source temperature of 125° C. and a desolvation temperature of 350° C. Capillary voltage and cone voltage were optimized in an infusion experiment. […] However, intense [M+H-18]^+ ions were produced in the source due to water loss. Therefore, these ions were selected as precursor ions to set MRM acquisition mode. Monitored transitions were 137>95 m/z for geraniol, 205>121 m/z for farnesol, and 273>149 m/z for geranylgeraniol at collision voltage of 15 V for all analytes. Argon was used as collision gas (2.2×10^-3 Torr). […] Chromatogram integration and analyte quantification was performed with QuantLynx module of the MassLynx 4.0 software (Micromass, Manchester, UK).

[4] = substrate 50 μM, 5 min preincubation, 30° C., read-out: IC50

## CC(C)=CCC/C(C)=C/CC/C(C)=C/C1C(COP(=O)(O)OP(=O)(O)O)C1(C)CC/C=C(\C)CCC=C(C)C (stereo in doubt) [Pre-squalene diphosphate (PSDP), Pre-squalene diphosphate]
Nterm-phos [1]
  Spec. Act.: 30 ± 15 nmol/min/mg
Human Cterm-EH; [LP] 14 μM
  Inhibition (%): 86%

## CC(C)=CCC/C(C)=C/CC/C(C)=C/C1C(COP(=O)(O)O)C1(C)CC/C=C(\C)CCC=C(C)C (stereo in doubt) [Pre-squalene monophosphate (PSMP), Pre-squalene monophosphate]
Nterm-phos [1]
  Spec. Act.: 54 ± 22 nmol/min/mg
Human Cterm-EH; [LP] 14 μM
  Inhibition (%): 30%

## CCCCCCCC/C=C\CCCCCCCC(=O)OCC(COP(=O)(O)O)OC(=O)CCCCCCC/C=C\CCCCCCCC (stereo not drawn) [1,2-Dioleoyl-glycerol-3-phosphate (DOGP), 1,2-Dioleoyl-glycerol-3-phosphate]
Nterm-phos [1]
  Spec. Act.: <0.3 nmol/min/mg

## CCCCCCCCCCCCCCCCC(C(=O)O)S(=O)(=O)O (stereo not drawn) [Compound 10, α-Sulfostearic acid]
[2]; [4]
  IC50: > 100 µM

## CCCCCCCCCCCCS(=O)(=O)O [Compound 12, Sodium dodecyl-sulfonate]
[2]; [4]
  IC50: > 100 µM

## O=[N+]([O-])c1ccc(OS(=O)(=O)O)cc1 [Compound 13, 4-Nitrophenyl sulfate]
[2]; [4]
  IC50: > 100 µM

## C[C@H](CCC(=O)NCCS(=O)(=O)O)[C@H]1CC[C@H]2[C@@H]3CC[C@@H]4C[C@H](OS(=O)(=O)O)CC[C@]4(C)[C@H]3CC[C@]12C [Compound 14, Taurolithocholic acid 3-sulfate]
[2]; read-out: IC50
  IC50: 90 ± 5 µM

## C[C@H](CCC(=O)NCCS(=O)(=O)O)[C@H]1CC[C@H]2[C@@H]3[C@H](O)C[C@@H]4C[C@H](O)CC[C@]4(C)[C@H]3C[C@H](O)[C@]12C [Compound 15, Taurocholic acid]
[2]
  IC50: > 100 µM

## C[C@]12CC[C@@H]3c4ccc(OS(=O)(=O)O)cc4CC[C@H]3[C@@H]1CCC2=O [Compound 16, Estrone-3-sulfate]
[2]; [4]
  IC50: > 100 µM

## O=C[C@H](O)[C@@H](O)[C@@H](O)[C@H](O)COS(=O)(=O)O [Compound 17, D-Galactose-6-sulfate]
[2]; [4]
  IC50: > 100 µM

## O=C1O[C@H]([C@@H](O)CO)C(O)=C1OS(=O)(=O)O [Compound 18, L-Ascorbic acid 2-sulfate dipotassium salt]
[2]; [4]
  IC50: > 100 µM

## CC(=O)N[C@H]1C(O)O[C@H](CO)[C@H](OS(=O)(=O)O)[C@@H]1O (stereo partly drawn) [Compound 19, N-Acetyl-D-galactosamine 4-sulfate]
[2]; [4]
  IC50: > 100 µM

## CC(C)OP(=O)(CP(=O)(OC(C)C)OC(C)C)OC(C)C [Compound 20, Tetra-isopropyl-methylene diphosphonate]
[2]; [4]
  IC50: > 100 µM

## CCOP(=O)(OCC)C(=O)c1ccccc1 [Compound 22, Diethyl-benzoylphosphonate]
[2]
  IC50: > 100 µM

## CCOP(=O)(C/C=C/c1ccccc1)OCC [Compound 24, Diethyl trans-cinnamyl-phosphonate]
[2]
  IC50: > 100 µM

## CCOP(=O)(Cc1ccc(C)cc1)OCC [Compound 25, Diethyl 4-methylbenzyl-phosphonate]
[2]
  IC50: > 100 µM

## CCCCCCCCOP(=O)(OCCCCCCCC)c1ccccc1 [Compound 27, Dioctyl-phenyl-phosphonate]
[2]; [4]
  IC50: 92 ± 3 µM

## O=P(O)(OCc1ccccc1)OCc1ccccc1 [Compound 28, Di-benzyl-phosphate]
[2]; [4]
  IC50: > 100 µM

## CCCCCC(=O)CP(=O)(OC)OC [Compound 29, Dimethyl (2-oxoheptyl)-phosphonate]
[2]
  IC50: > 100 µM

## CCOP(=O)(OCC)C(O)C(F)(F)F (stereo not drawn) [Compound 30, Diethyl (2,2,2-trifluoro-1-hydroxyethyl)-phosphonate]
[2]
  IC50: > 100 µM

## CCOP(=O)(CSCC)OCC [Compound 31, Diethyl (ethyltiomethyl)phosphonate]
[2]
  IC50: > 100 µM

## CCCCCCCCCCCCP(=O)(O)O [Compound 33, Dodecyl phosphonic acid]
[2]; [4]
  IC50: > 100 µM

## CC(C)=CCC/C(C)=C/COP(=O)(O)OP(=O)(O)O [Compound 34, Geranyl-pyrophosphate]
Nterm-phos [3]; linear curve, above the highest concentration tested
  Km: > 5 µM

## CC(C)=CCC/C(C)=C/CC/C(C)=C/COP(=O)(O)OP(=O)(O)O [Compound 35, Farnesyl-pyrophosphate]
Nterm-phos [1]
  Spec. Act.: 32 ± 7 nmol/min/mg
Human Cterm-EH; [LP] 10 μM
  Inhibition (%): 60%
Nterm-phos [3]; compound as substrate
  Hill coefficient: 1.0 ± 0.1
  Km: 10.1 ± 1.1 µM
  VM: 12.5 ± 1.0 nmol/min/mg

## CC(C)=CCC/C(C)=C/CC/C(C)=C/CC/C(C)=C/COP(=O)(O)OP(=O)(O)O [Compound 36, Geranylgeranyl-pyrophosphate]
Human Cterm-EH; [LP] 10 μM
  Inhibition (%): 45%
Nterm-phos [3]; compound as substrate
  Hill coefficient: 1.0 ± 0.2
  Km: 3.4 ± 1.6 µM
  VM: 4.7 ± 1.1 nmol/min/mg

## CC(C)=CCC/C(C)=C\CC/C(C)=C\COP(=O)(O)O [Compound 37, Farnesyl monophosphate]
Nterm-phos [3]
  hydrolyzed faster than the corresponding pyrophosphate derivative: approximately 50 fold
Nterm-phos [3]; compound as substrate
  Hill coefficient: 1.0 ± 0.1
  Km: 5.7 ± 0.4 µM
  VM: 303 ± 19 nmol/min/mg

## CCCCCCCCCCCCCC=CC(O)C(COP(=O)(O)O)NC(=O)CCCCCCC (stereo not drawn) [N-Octyl-ceramide-1-phosphate (OCP), N-Octyl-ceramide-1-phosphate]
Nterm-phos [1]
  Spec. Act.: <0.3 nmol/min/mg
Human Cterm-EH; [LP] 50 μM
  Inhibition (%): 31%

## CCCCCCCCCCCCC/C=C/[C@@H](O)[C@@H](N)COP(=O)(O)O [Sphingosine-1-phosphate (S1P), Sphingosine-1-phosphate]
Nterm-phos [1]
  Spec. Act.: 1.1 ± 0.1 nmol/min/mg
Human Cterm-EH; [LP] 40 μM
  inhibition at 40 µM: 2%
